The values that follow come from patent US20230271949A1, “GLP-1R MODULATING COMPOUNDS” (ASCLETIS BIOSCIENCE CO., LTD., priority 2022, published 2023).

Chain of GLP-1R (P43220 24-463): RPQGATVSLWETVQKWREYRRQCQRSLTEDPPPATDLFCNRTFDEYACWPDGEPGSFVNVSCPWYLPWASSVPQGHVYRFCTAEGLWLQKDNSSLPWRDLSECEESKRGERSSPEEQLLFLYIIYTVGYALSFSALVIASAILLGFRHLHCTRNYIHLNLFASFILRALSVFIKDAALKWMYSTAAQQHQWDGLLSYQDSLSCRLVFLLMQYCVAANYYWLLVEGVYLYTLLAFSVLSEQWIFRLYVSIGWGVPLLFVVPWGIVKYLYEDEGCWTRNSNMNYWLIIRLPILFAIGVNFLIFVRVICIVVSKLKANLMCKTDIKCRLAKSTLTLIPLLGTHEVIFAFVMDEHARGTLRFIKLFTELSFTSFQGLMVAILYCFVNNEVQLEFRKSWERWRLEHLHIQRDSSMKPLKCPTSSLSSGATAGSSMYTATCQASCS

The target in this assay is GLP-1R (Homo sapiens, UniProt P43220). Description: GLP-1R agonist cAMP stimulation assay (HTRF cAMP). In kind it is cell-based. To be noted: HEK293 cell line expressing GLP-1 target; HTRF cAMP agonist mode, 30 min at RT. In a few lines:
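Read-out was HTRF (665/615 ratio), interpolated onto a cAMP standard curve and normalised to DMSO (0%) and maximal GLP-1(7-37) reference (100%) wells. Assay: GLP-1R cells at 1.0×E5/mL incubated with compound dilution series (3-fold, 10 points) for 30 min at room temperature before 60 min detection.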
For orientation: TR-FRET usually uses a lanthanide donor and a delayed reading to cut background.
The EC50 is the concentration needed to bring the measured effect to its halfway point. Low readings indicate higher potency in that assay, high ones lower potency in that assay. In turn, `Cc1n[nH]c2c(Cl)cc(NC(=O)c3ccc4c(c3)nc(CN3CCC(c5cccc6c5OC(C)(c5ccc(Cl)cc5F)O6)CC3)n4CC3CCO3)cc12` (stereo not drawn) [Compound 338] showed an EC50 of 1.32 nM.
The figure for `Cc1cc(NC(=O)c2ccc3c(c2)nc(CN2CCC(c4cccc5c4OC(C)(c4ccc(Cl)cc4F)O5)CC2)n3C[C@@H]2CCO2)cc2[nH]c(=O)[nH]c12` (stereo partly drawn) [Compound 339] is 0.39 nM; for `Cc1cc(C(=O)Nc2ccc3c(c2)nc(CN2CCC(c4cccc5c4OC(C)(c4ccc(Cl)cc4F)O5)CC2)n3C[C@@H]2CCO2)cc2c1NC(=O)C21CC1` (stereo partly drawn) [Compound 343] it is 0.54 nM.
`Cc1n[nH]c2c(Cl)cc(C(=O)Nc3ccc4c(c3)nc(CN3CCC(c5cccc6c5OC(C)(c5ccc(Cl)cc5F)O6)CC3)n4CC3CCO3)cc12` (stereo not drawn) [Compound 344] gave an EC50 of 1.02 nM.
The figure for `Cc1cc(C(=O)Nc2ccc3c(c2)nc(CN2CCC(c4cccc5c4OC(C)(c4ccc(Cl)cc4F)O5)CC2)n3C[C@@H]2CCO2)cc2[nH]c(=O)[nH]c12` (stereo partly drawn) [Compound 345] is 0.21 nM; for `CCc1n[nH]c2ccc(C(=O)Nc3ccc4c(c3)nc(CN3CCC(c5cccc6c5OC(C)(c5ccc(C#N)cc5F)O6)CC3)n4CC3CCO3)cc12` (stereo not drawn) [Compound 346] it is 0.76 nM.
Consider `CC(C)c1n[nH]c2ccc(C(=O)Nc3ccc4c(c3)nc(CN3CCC(c5cccc6c5OC(C)(c5ccc(C#N)cc5F)O6)CC3)n4CC3CCO3)cc12` (stereo not drawn) [Compound 347], for which the EC50 stood at 0.81 nM.
Turning to `CC1(c2ccc(C#N)cc2F)Oc2cccc(C3CCN(Cc4nc5cc(NC(=O)c6ccc7[nH]nc(C8CC8)c7c6)ccc5n4CC4CCO4)CC3)c2O1` (stereo not drawn) [Compound 348], the EC50 came to 0.91 nM.
On to `Cc1cc2c(Cl)ccc(COc3cccc(C4=CCN(Cc5nc6cc(C(=O)Nc7cc(C)c8[nH]nc(C(F)F)c8c7)ccc6n5C[C@@H]5CCO5)CC4)n3)c2o1` [Compound 349], for which the EC50 is 1.61 nM.
Turning to `Cc1cc2c(C#N)ccc(COc3cccc(C4=CCN(Cc5nc6cc(C(=O)Nc7cc(F)c8[nH]nc(C)c8c7)ccc6n5C[C@@H]5CCO5)CC4)n3)c2s1` [Compound 350], the EC50 worked out at 0.51 nM.
The figure for `Cc1n[nH]c2c(C(F)F)cc(NC(=O)c3ccc4c(c3)nc(CN3CC=C(c5cccc(OCc6ccc(Cl)c7cc(Cl)oc67)n5)CC3)n4C[C@@H]3CCO3)cc12` [Compound 352] is 1.03 nM; for `Cc1cc2c(C#N)ccc(COc3cccc(C4=CCN(Cc5nc6cc(C(=O)Nc7cc(F)c8[nH]nc(C)c8c7)ccc6n5C[C@@H]5CCO5)CC4)n3)c2o1` [Compound 353] it is 0.44 nM; for `Cc1cc2c(C#N)ccc(COc3cccc(C4=CCN(Cc5nc6cc(C(=O)Nc7ccc8[nH]nc(C)c8c7)ccc6n5C[C@@H]5CCO5)CC4)n3)c2o1` [Compound 355] it is 0.78 nM.
With `Cc1cc2c(C#N)ccc(COc3cccc(C4=CCN(Cc5nc6cc(C(=O)Nc7ccc8[nH]nc(C(F)(F)F)c8c7)ccc6n5C[C@@H]5CCO5)CC4)n3)c2o1` [Compound 356], the EC50 is 2.21 nM.
For `Cc1n[nH]c2c(C)cc(C(=O)Nc3ccc4c(c3)nc(CN3CC=C(c5cccc(OCc6ccc(C#N)c7cc(Cl)oc67)n5)CC3)n4C[C@@H]3CCO3)cc12` [Compound 357], the concentration for a half-maximal effect (EC50) was found to be 0.41 nM.
Then `Cc1cc2c(C#N)ccc(COc3cccc(C4=CCN(Cc5nc6cc(NC(=O)c7ccc8[nH]nc(C)c8c7)ccc6n5C[C@@H]5CCO5)CC4)n3)c2o1` [Compound 358], with 0.98 nM.
Then `Cc1cc2c(C#N)ccc(COc3cccc(C4=CCN(Cc5nc6cc(NC(=O)c7ccc8[nH]nc(C(F)(F)F)c8c7)ccc6n5C[C@@H]5CCO5)CC4)n3)c2o1` [Compound 359], with 1.62 nM.
The figure for `Cc1cc2c(C#N)ccc(COc3cccc(C4=CCN(Cc5nc6cc(NC(=O)c7cc(F)c8[nH]nc(C)c8c7)ccc6n5C[C@@H]5CCO5)CC4)n3)c2o1` [Compound 360] is 0.19 nM; for `Cc1c(C#N)sc(COc2cccc(C3=CCN(Cc4nc5cc(NC(=O)c6ccc7[nH]nc(C)c7c6)ccc5n4C[C@@H]4CCO4)CC3)n2)c1F` [Compound 361] it is 0.9 nM; for `Cc1n[nH]c2c(F)cc(C(=O)Nc3ccc4c(c3)nc(CN3CC=C(c5cccc(OCc6cc(F)c(C#N)s6)n5)CC3)n4C[C@@H]3CCO3)cc12` [Compound 362] it is 0.85 nM.
With `Cc1n[nH]c2c(F)cc(NC(=O)c3ccc4c(c3)nc(CN3CC=C(c5cccc(OCc6cc(F)c(C#N)s6)n5)CC3)n4C[C@@H]3CCO3)cc12` [Compound 363], the EC50 amounted to 0.41 nM.
The figure for `Cc1n[nH]c2c(C)cc(NC(=O)c3ccc4c(c3)nc(CN3CC=C(c5cccc(OCc6cc(F)c(C#N)s6)n5)CC3)n4C[C@@H]3CCO3)cc12` [Compound 364] is 0.38 nM.
Then `Cc1cc(NC(=O)c2ccc3c(c2)nc(CN2CC=C(c4cccc(OCc5cc(F)c(C#N)s5)n4)CC2)n3C[C@@H]2CCO2)cc2c(C(F)(F)F)n[nH]c12` [Compound 365], with 1.32 nM; and `Cc1n[nH]c2ccc(NC(=O)c3ccc4c(c3)nc(CN3CC=C(c5cccc(OCc6ccc(C#N)c7ccccc67)n5)CC3)n4C[C@@H]3CCO3)cc12` [Compound 366], with 5.97 nM.
Then `Cc1n[nH]c2c(F)cc(NC(=O)c3ccc4c(c3)nc(CN3CC=C(c5cccc(OCc6ccc(C#N)c7c6ncn7C)n5)CC3)n4C[C@@H]3CCO3)cc12` [Compound 367], with 3.92 nM.
The compound `Cc1n[nH]c2ccc(NC(=O)c3ccc4c(c3)nc(CN3CC=C(c5cccc(OCc6c(F)cnc7ccccc67)n5)CC3)n4C[C@@H]3CCO3)cc12` [Compound 368] returned a half-maximal effective concentration (EC50) of 9.19 nM.
Turning to `Cc1nc2cccc(COc3cccc(C4=CCN(Cc5nc6cc(C(=O)Nc7ccc8[nH]nc(C)c8c7)ccc6n5C[C@@H]5CCO5)CC4)n3)c2s1` [Compound 369], the EC50 amounted to 2.91 nM.
As for `Cc1cc2c(C#N)ccc(COc3cccc(C4CCN(Cc5nc6cc(NC(=O)c7ccc8[nH]nc(C)c8c7)ccc6n5C[C@@H]5CCO5)CC4)n3)c2o1` [Compound 370], the EC50 amounted to 5.12 nM.
As to `Cc1cc2c(C#N)ccc(COc3cccc(C4CCN(Cc5nc6cc(NC(=O)c7ccc8[nH]nc(C(F)(F)F)c8c7)ccc6n5C[C@@H]5CCO5)CC4)n3)c2o1` [Compound 371], the EC50 was found to be 3.19 nM.
Turning to `Cc1cc2c(C#N)ccc(COc3cccc(C4CCN(Cc5nc6cc(NC(=O)c7cc(F)c8[nH]nc(C)c8c7)ccc6n5C[C@@H]5CCO5)CC4)n3)c2o1` [Compound 372], the EC50 was 0.65 nM.
In the case of `Cc1c(C#N)sc(COc2cccc(C3CCN(Cc4nc5cc(NC(=O)c6ccc7[nH]nc(C)c7c6)ccc5n4C[C@@H]4CCO4)CC3)n2)c1F` [Compound 373], the EC50 turned out to be 0.39 nM.
Then `Cc1n[nH]c2c(F)cc(C(=O)Nc3ccc4c(c3)nc(CN3CCC(c5cccc(OCc6cc(F)c(C#N)s6)n5)CC3)n4C[C@@H]3CCO3)cc12` [Compound 374], with 0.55 nM; and `Cc1n[nH]c2c(F)cc(NC(=O)c3ccc4c(c3)nc(CN3CCC(c5cccc(OCc6cc(F)c(C#N)s6)n5)CC3)n4C[C@@H]3CCO3)cc12` [Compound 375], with 1.01 nM.
In the case of `Cc1n[nH]c2c(C)cc(NC(=O)c3ccc4c(c3)nc(CN3CCC(c5cccc(OCc6cc(F)c(C#N)s6)n5)CC3)n4C[C@@H]3CCO3)cc12` [Compound 376], the EC50 is 0.98 nM.
The compound `Cc1cc(NC(=O)c2ccc3c(c2)nc(CN2CCC(c4cccc(OCc5cc(F)c(C#N)s5)n4)CC2)n3C[C@@H]2CCO2)cc2c(C(F)(F)F)n[nH]c12` [Compound 377] showed an EC50 of 3.41 nM.
For the compound `Cc1n[nH]c2ccc(NC(=O)c3ccc4c(c3)nc(CN3CCC(c5cccc(OCc6ccc(C#N)c7ccccc67)n5)CC3)n4C[C@@H]3CCO3)cc12` [Compound 378], the EC50 turned out to be 1.03 nM.
As to `Cc1n[nH]c2c(F)cc(NC(=O)c3ccc4c(c3)nc(CN3CCC(c5cccc(OCc6ccc(C#N)c7c6ncn7C)n5)CC3)n4C[C@@H]3CCO3)cc12` [Compound 379], the EC50 turned out to be 3.12 nM.
Then `Cc1n[nH]c2ccc(NC(=O)c3ccc4c(c3)nc(CN3CCC(c5cccc(OCc6c(F)cnc7ccccc67)n5)CC3)n4C[C@@H]3CCO3)cc12` [Compound 380], with 6.91 nM; and `Cc1nc2cccc(COc3cccc(C4CCN(Cc5nc6cc(C(=O)Nc7ccc8[nH]nc(C)c8c7)ccc6n5C[C@@H]5CCO5)CC4)n3)c2s1` [Compound 381], with 1.99 nM.
In the case of `Cc1n[nH]c2c(C(F)(F)F)cc(NC(=O)c3ccc4c(c3)nc(CN3CC=C(c5cccc6c5O[C@@](C)(c5ccc(Cl)cc5F)O6)CC3)n4CC3CCO3)cc12` (stereo partly drawn) [Compound 388], it took 0.82 nM to reach a half-maximal effect (EC50).
Turning to `Cc1n[nH]c2c(C(F)(F)F)cc(NC(=O)c3ccc4c(c3)nc(CN3CC=C(c5cccc6c5O[C@](C)(c5ccc(Cl)cc5F)O6)CC3)n4CC3CCO3)cc12` (stereo partly drawn) [Compound 389], the EC50 turned out to be 2.81 nM.
The compound `Cc1c[nH]c2c(C)cc(C(=O)Nc3ccc4c(c3)nc(CN3CC=C(c5cccc(OCc6ccc(Cl)cc6F)n5)CC3)n4C[C@@H]3CCO3)cc12` [Compound 390] yielded an EC50 of 5.21 nM.
Then `Cc1[nH]c2ccc(C(=O)Nc3ccc4c(c3)nc(CN3CC=C(c5cccc(OCc6ccc(Cl)cn6)n5)CC3)n4C[C@@H]3CCO3)cc2c1C` [Compound 392], with 10.1 nM; and `O=C(Nc1ccc2c(c1)nc(CN1CC=C(c3cccc(OCc4ccc(Cl)cc4F)n3)CC1)n2C[C@@H]1CCO1)c1ccc2[nH]ccc2c1` [Compound 393], with 15.2 nM.
Then `Cc1cc2cc(C(=O)Nc3ccc4c(c3)nc(CN3CC=C(c5cccc(OCc6ccc(Cl)cc6F)n5)CC3)n4C[C@@H]3CCO3)ccc2[nH]1` [Compound 394], with 21.1 nM; and `CC(=O)c1n[nH]c2ccc(C(=O)Nc3ccc4c(c3)nc(CN3CC=C(c5cccc(OCc6ccc(Cl)cc6F)n5)CC3)n4C[C@@H]3CCO3)cc12` [Compound 395], with 10.3 nM.
The figure for `Fc1cc(Cl)ccc1COc1cccc(C2=CCN(Cc3nc4cc(-n5cnc(-c6ccn[nH]6)c5)ccc4n3C[C@@H]3CCO3)CC2)n1` [Compound 396] is 146 nM.
Regarding `Cc1cc(-c2cn(-c3ccc4c(c3)nc(CN3CC=C(c5cccc(OCc6ccc(Cl)cc6F)n5)CC3)n4C[C@@H]3CCO3)cn2)[nH]n1` [Compound 397], it took 127 nM to reach a half-maximal effect (EC50).
